Reference: patent US5753656A, “Method for treating spinocerebellar degeneration” (Suntory Limited, priority 1994, dated 1998)
“Also recorded” adds a separate entry of the source. Where a name gives a salt, the structure may show the parent alone.

Experiments:
[1] = KOKAI No. 25323/84; cited from earlier work
[2] = test system: Machado-Joseph disease (patients); assay: Double-blind crossover trial of BH4: overall conclusion on neurologic symptoms; type: in vivo, humans; details: 1 mg/kg once daily, 10 days, oral capsules
Experimental: (§1) To 5 patients with Machado-Joseph disease listed in Table 1, a placebo (ascorbic acid) and BH4 were administered in a double-blind clinical trial with the procedure as follows:
(§2) Three patients from three families diagnosed as "clinically definite family" and two patients from two families diagnosed as "probable family" according to the diagnostic criteria by Sakai (Sakai, T., ditto) were selected.
(§3) The patients received 1 mg/kg(b.w.) of BH4 or ascorbic acid in capsules once daily, after lunch. The chemical form of BH4 given was BH4 dihydrochloride in Cases 1 to 3 and 5 and (6R,S)-L-erythro-5, 6,7,8-tetrahydrobiopterin dihydrochloride in Case 4.
Each patient was assessed by the following three methods:
(§4) A double-blind, placebo-controlled crossover design was adopted.
(§5) Data were analyzed using paired t-test.

[3] = test system: Machado-Joseph disease (patients); assay: Double-blind crossover trial of BH4: neurological examination; type: in vivo, humans; details: 1 mg/kg once daily, 10 days
Experimental: as §1, §2, §3
The examination was performed in respect of muscle tonus of the extremities, deep reflexes, severity of dystonia, disturbance of stationary balance on standing, finger-to-nose test, finger tapping test, diadochokinetic test, heel-to-knee tapping test, and dysarthria.
as §4, §5

[4] = test system: Machado-Joseph disease (patients); assay: Double-blind crossover trial of BH4: subjective improvement; type: in vivo, humans; details: 1 mg/kg once daily, 10 days
Experimental: as §1, §2, §3
Each patient was asked with respect to six symptomatic parameters: dysarthria, dysphagia, disturbance of dexterity, disturbance of stationary balance on standing, disturbance of gait, and overall sense of general well-being.
as §4, §5

[5] = Acute oral toxicity (LD50) in rats; type: in vivo
Text: As the active ingredients provided by the present invention for treatment of spinocerebellar degeneration, (6R)-L-erythro-5,6,7,8-tetrahydrobiopterin (BH4) and its salts are most preferable, but analogous compounds such as (6R,S)-5,6,7,8-tetrahydrobiopterin, 1',2'-diacetyl-5, 6,7,8-tetrahydrobiopterin, sepiapterin, 6-methyl-5,6,7,8-tetrahydropterin or 6-phenyl-5,6,7,8-tetrahydropterin and their salts may also be acceptable. However, needless to say, BH4 which naturally exists in the body is preferable. […] The other compounds belonging to formula (I) likewise have little or no acute toxicity.

Compound: C[C@H](O)[C@H](O)C1CNc2nc(N)[nH]c(=O)c2N1 (stereo partly drawn) [(6R,S)-5,6,7,8-tetrahydrobiopterin]
- Toxicity as seen in the treatment of patients with Parkinson disease [1]: only slightly toxic

Compound: C[C@H](O)[C@H](O)[C@H]1CNc2nc(N)[nH]c(=O)c2N1 [BH4, (6R)-L-erythro-5,6,7,8-tetrahydrobiopterin]
- Effect on neurologic symptoms of Machado-Joseph disease, conclusion [2]: remarkable therapeutic efficacy; also recorded: effective in improving neurologic symptoms
- Effect on neurologic symptoms of Machado-Joseph disease, conclusion ([2]; listed as tetrahydrobiopterin): remarkable amelioration of the neurologic symptoms
- Neurological parameters, overall result [3]: none exhibited a statistically significant improvement
- Subjective symptoms, overall result [4]: none showed a statistically significant improvement

Compound: C[C@H](O)[C@H](O)[C@H]1CNc2nc(N)[nH]c(=O)c2N1 [BH4 dihydrochloride]
- Acute oral toxicity, assessment in words [5]: practically non-toxic
- LD50 ([5]; rat, in vivo): > 2000 mg/kg
